These compounds were tested against human α-thrombin (Homo sapiens (Human), UniProt P00734) (assay: In vitro assay for determining proteinase inhibition (thrombin Ki)). Conditions: not given.
Format: biochemical
Procedure: NMR determinations were made using 400 MHz field strength. Ki data was obtained according to the procedure described in Lewis, et al. Thromb. […] Reactions sensitive to moisture or air were performed under nitrogen or argon using anhydrous solvents and reagents. […] Typically, the analytical LC-MS system used consisted of a Waters ZQ platform with electrospray ionization in positive ion detection mode with an Agilent 1100 series HPLC with autosampler. The column was usually a Water Xterra MS C18, 3.0×50 mm, 5 μm. The flow rate was 1 mL/min, and the injection volume was 10 μL. UV detection was in the range 210-400 nm. […] Preparative HPLC purifications were usually performed using a mass spectrometry directed system. […] The mobile phases consisted of mixtures of acetonitrile (10-100%) in water containing 0.1% TFA. Flow rates were maintained at 50 mL/min, the injection volume was 1800 μL, and the UV detection range was 210-400 nm. Mobile phase gradients were optimized for the individual compounds. Reactions performed using microwave irradiation were normally carried out using an Emrys Optimizer manufactured by Personal Chemistry, or an Initiator manufactured by Biotage. Concentration of solutions was carried out on a rotary evaporator under reduced pressure. Flash chromatography was usually performed using a Biotage Flash Chromatography apparatus (Dyax Corp.) on silica gel ([…], 60 Å pore size) in pre-packed cartridges of the size noted. ^1H NMR spectra were acquired at 500 MHz spectrometers in CDCl3 solutions unless otherwise noted. Chemical shifts were reported in parts per million (ppm). Tetramethylsilane (TMS) was used as internal reference in CD3Cl solutions, and residual CH3OH peak or TMS was used as internal reference in CD3OD solutions. Coupling constants (J) were reported in hertz (Hz). Chiral analytical chromatography was performed on one of Chiralpak AS, Chiralpak AD, Chiralcel OD, Chiralcel IA, or Chiralcel OJ columns (250×4.6 mm) (Daicel Chemical Industries, Ltd.) with noted percentage of either ethanol in hexane (% Et/Hex) or isopropanol in heptane (% IPA/Hep) as isocratic solvent systems. Chiral preparative chromatography was conducted on one of Chiralpak AS, Chiralpak AD, Chiralcel OD, Ciralcel IA, or Chiralcel OJ columns (20×250 mm) (Daicel Chemical Industries, Ltd.) with desired isocratic solvent systems identified on chiral analytical chromatography or by supercritical fluid (SFC) conditions. Celite® (Fluka) diatomite is diatomaceous earth, and can be referred to as “celite”.
Relevant in vitro assays are referenced in Morrissette, et al., Bioorg. […] The assays were carried out at 25° C. in 0.05 M TRIS buffer pH 7.4, 0.15 M NaCl, 0.1% PEG. Trypsin assays also contained 1 mM CaC12.
Concentrations of stock solutions of Z-GPR-afc were determined from measurements of absorbance at 380 nm of the 7-amino-4-trifluoromethyl coumarin produced upon complete hydrolysis of an aliquot of the stock solution by thrombin.
Activity assays were performed by diluting a stock solution of substrate at least tenfold to a final concentration ≦0.1 Km into a solution containing enzyme or enzyme equilibrated with inhibitor. Times required to achieve equilibration between enzyme and inhibitor were determined in control experiments. Initial velocities of product formation in the absence (Vo) or presence of inhibitor (Vi) were measured. Assuming competitive inhibition, and that unity is negligible compared Km/[S], [I]/e, and [I]/e (where [S], [I], and e respectively represent the total concentrations, of substrate, inhibitor and enzyme), the equilibrium constant (Ki) for dissociation of the inhibitor from the enzyme can be obtained from the dependence of Vo/Vi on [I] shown in the following equation.

| Structure (SMILES) | Ki [nM] |
| --- | --- |
| NCc1ccc(Cl)cc1CNC(=O)[C@@H]1CCCN1C(=O)C1(O)CCc2ncccc21 (stereo partly drawn) [Compound 19-4, (2S)-N-{2-(Aminomethyl)-5-chlorobenzyl}-1-(5-hydroxy-6,7-dihydro-5H-cyclopenta[b]pyridine-5-carbonyl)pyrrolidine-2-carboxamide-2,2,2-trifluoroacetate] | 49 |
| NCc1ccc(Cl)cc1CNC(=O)[C@@H]1CCCN1C(=O)C1CNc2ccccc21 (stereo partly drawn) [Compound 25-5, (2S)-N-{2-(Aminomethyl)-5-chlorobenzyl}-1-(indoline-3-carbonyl)pyrrolidine-2-carboxamide bis(2,2,2-trifluoroacetate)] | 59 |
| NCc1ccc(Cl)cc1CNC(=O)[C@@H]1CCCN1C(=O)c1cc(-c2ccncc2)c[nH]1 [Compound 13-10, (S)—N-{2-(Aminomethyl)-5-chlorobenzyl)-1-{4-(pyridin-4-yl)-1H-pyrrole-2-carbonyl) pyrrolidine-2-carboxamide-bis(2,2,2-trifluoroacetate)] | 3.4 |
| NCc1ccc(Cl)cc1CNC(=O)[C@@H]1CCCN1C(=O)[C@H]1CCCO1 [Compound 38-4, (S)—N-{2-(Aminomethyl)-5-chlorobenzyl}-1-{(R)-tetrahydrofuran-2-carbonyl}pyrrolidine-2-carboxamide-2,2,2-trifluoroacetate] | 100 |

Same assay, conditions: 25° C., 0.05 M TRIS buffer pH 7.4, 0.15 M NaCl, 0.1% PEG; competitive inhibition assumed

| Structure (SMILES) | Ki [nM] |
| --- | --- |
| NCc1ccc(Cl)cc1CNC(=O)[C@@H]1CCCN1C(=O)C1(O)CCc2cccnc21 (stereo partly drawn) [Compound 20-8, (2S)-N-(2-(Aminomethyl)-5-chlorobenzyl)-1-(7-hydroxy-6,7-dihydro-5H-cyclopenta[b]pyridine-7-carbonyl)pyrrolidine-2-carboxamide-bis(2,2,2-trifluoroacetate)] | 7.7 |
| NCc1ccc(Cl)cc1CNC(=O)[C@@H]1CCCN1C(=O)c1ccc(C(F)(F)F)[nH]1 [Compound 4-5, (S)—N-{2-(Aminomethyl)-5-chlorobenzyl}-1-{5-(trifluoromethyl)-1H-pyrrole-2-carbonyl}pyrrolidine-2-carboxamide] | 27 |
| NCc1ccc(Cl)cc1CNC(=O)[C@@H]1CCCN1C(=O)C1(O)CCc2ccncc21 (stereo partly drawn) [Compound 28-6, (2S)-N-{2-(aminomethyl)-5-chlorobenzyl}-1-(7-hydroxy-6,7-dihydro-5H-cyclopenta[c]pyridine-7-carbonyl)pyrrolidine-2-carboxamide bis (2,2,2-trifluoroacetate)] | 16 |
| NCc1ccc(Cl)cc1CNC(=O)[C@@H]1CCCN1C(=O)c1cc(C(=O)c2cccnc2)c[nH]1 [Compound 8-8, (S)—N-{2-(aminomethyl)-5-chlorobenzyl}-1-(4-nicotinoyl-1H-pyrrole-2-carbonyl)pyrrolidine-2-carboxamide-bis(2,2,2-trifluoro acetate] | 18 |
| NCc1ccc(Cl)cc1CNC(=O)[C@@H]1CCCN1C(=O)C1(O)CCCc2cnccc21 (stereo partly drawn) [Compound 31-7, (2S)-N-{2-(Aminomethyl)-5-chlorobenzyl}-1-(5-hydroxy-5,6,7,8-tetrahydroisoquinoline-5-carbonyl)pyrrolidine-2-carboxamide bis(2,2,2-trifluoroacetate)] | 4.8 |
| NCc1ccc(Cl)cc1CNC(=O)[C@@H]1CCCN1C(=O)c1cc(C(O)c2ccncc2)c[nH]1 (stereo partly drawn) [Compound 6-2, (2S)-N-{2-(Aminomethyl)-5-chlorobenzyl}-1-[4-{hydroxyl(pyridine-4-yl)methyl}-1H-pyrrole-2-carbonyl]pyrrolidine-2-carboxamide-bis(2,2,2-trifluoroacetate)] | 21 |
| NCc1ccc(Cl)cc1CNC(=O)[C@@H]1CCCN1C(=O)c1cc(C(=O)c2ccccn2)c[nH]1 [Compound 10-7, (S)—N-{2-(Aminomethyl)-5-chlorobenzyl}-1-(4-picolinoyl-1H-pyrrole-2-carbonyl) pyrrolidine-2-carboxamide-bis(2,2,2-trifluoroacetate)] | 17 |
| NCc1ccc(Cl)cc1CNC(=O)[C@@H]1CCCN1C(=O)C1(O)CCc2cnccc21 (some centres unmarked) [Compound 27-9] | 20 |
| CCOC(=O)c1ccc(C(=O)N2CCC[C@H]2C(=O)NCc2cc(Cl)ccc2CN)[nH]1 [Compound 3-5, (S)-Ethyl-5-[2-{(2-(aminomethyl)-5-chlorobenzyl)carbamoyl}-pyrrolidine-1-carbonyl]-1H-pyrrole-2-carboxylate-2,2,2-trifluoroacetate] | 47 |
| NCc1ccc(Cl)cc1CNC(=O)[C@@H]1CCCN1C(=O)C1(O)CCCc2cccnc21 (stereo partly drawn) [Compound 32-7, (2S)-N-{2-(aminomethyl)-5-chlorobenzyl}-1-(8-hydroxy-5,6,7,8-tetrahydroquinoline-8-carbonyl)pyrrolidine-2-carboxamide bis(2,2,2-trifluoroacetate)] | 3.9 |

The remaining lines, values ahead:

| Ki [nM] | Structure (SMILES) |
| --- | --- |
| 22 | NCc1ccc(Cl)cc1CNC(=O)[C@@H]1CCCN1C(=O)c1cc(-c2ccccn2)c[nH]1 [Compound 15-8, (S)—N-[{2-(Aminomethyl)-5-chlorobenzyl}-1-{4-(pyridin-2-yl)-1H-pyrrole-2-carbonyl}]pyrrolidine-2-carboxamide bis (2,2,2-trifluoroacetate)] |
| 22 | NCc1ccc(Cl)cc1CNC(=O)[C@@H]1CCCN1C(=O)c1cc(-c2cccnc2)c[nH]1 [Compound 14-5, (S)—N-{2-(Aminomethyl)-5-chlorobenzyl}-1-{4-(pyridin-3-yl)-1H-pyrrole-2-carbonyl}pyrrolidine-2-carboxamide bis(2,2,2-trifluoroacetate)] |
| 260 | NCc1ccc(Cl)cc1CNC(=O)[C@@H]1CCCN1C(=O)c1ncccn1 [Compound 42-3, (S)—N-(2-(Aminomethyl)-5-chlorobenzyl)-1-(pyrimidine-2-carbonyl)pyrrolidine-2-carboxamide bis(2,2,2-trifluoroacetate)] |
| 9.2 | NCc1ccc(Cl)cc1CNC(=O)[C@@H]1CCCN1C(=O)C1COc2ccccc21 (stereo partly drawn) [Compound 24-8, (2S)-N-{2-(Aminomethyl)-5-chlorobenzyl}-1-(2,3-dihydrobenzofuran-3-carbonyl)pyrrolidine-2-carboxamide-2,2,2-trifluoroacetate] |
| 3500 | CC(C)(C)[C@@H](O)C(=O)N1CCC[C@H]1C(=O)NCc1cc(Cl)ccc1CO [Compound 17-5, (S)—N-{5-Chloro-2-(hydroxymethyl)benzyl}-1-{(R)-2-hydroxy-3,3-dimethylbutanoyl}pyrrolidine-2-carboxamide] |
| 9.7 | NCc1ccc(Cl)cc1CNC(=O)[C@@H]1CCCN1C(=O)c1cc(C(O)c2ccccn2)c[nH]1 (stereo partly drawn) [Compound 11-2, (2S)-N-{2-(Aminomethyl)-5-chlorobenzyl}-1-[4-{hydroxyl(pyridine-2-yl)methyl}-1H-pyrrole-2-carbonyl]pyrrolidine-2-carboxamide] |
| 15 | NCc1ccc(Cl)cc1CNC(=O)[C@@H]1CCCN1C(=O)C1OCc2ccccc21 (stereo partly drawn) [Compound 21-6, (2S)-N-{2-(Aminomethyl)-5-chlorobenzyl}-1-(1,3-dihydroisobenzofuran-1-carbonyl)pyrrolidine-2-carboxamide-2,2,2-trifluoroacetate] |
| 104 | C[C@@]1(C(=O)NCc2cc(Cl)ccc2CN)CCCN1C(=O)c1ccc(Cl)[nH]1 [Compound 44, (S)-N-(2-(aminomethyl)-5-chlorobenzyl)-1-(5-chloro-1H-pyrrole-2-carbonyl)-2-methylpyrrolidine-2-carboxamide] |
| 526 | C[C@@]1(C(=O)NCc2cc(Cl)ccc2CN)CCCN1C(=O)[C@H]1CCC(=O)N1 [Compound 43, (S)-N-(2-(aminomethyl)-5-chlorobenzyl)-2-methyl-1-((R)-5-oxopyrrolidine-2-carbonyl)pyrrolidine-2-carboxamide] |
